These results are taken from publication PMC5510229, “BCAT1 controls metabolic reprogramming in activated human macrophages and is associated with inflammatory diseases” (Nature Communications, 2017).

A short description of data set [1]: Dose-escalating toxicity study. The format is in vivo. Particulars: oral or intraperitoneal administration, doses up to 2 g kg^−1.
In data set [2] the test system is human monocyte-derived macrophages (hMDMs). Nature of the data set: qRT-PCR / Western blot of activation markers in hMDMs. The format is cell-based. For orientation: In qPCR the cycle at which signal appears reflects the starting amount.
The next data set in a line: In vivo pharmacokinetics. More on the design: species or system ICR mice. The conditions noted are these: ICR, mouse, plasma. On the procedure:
The experiment was performed by Eurofins Panlabs Inc. Briefly, fasting pharmacokinetic parameters were obtained after administration of 125 mg kg^−1 i.v. or 500 mg kg^−1 p.o ERG240 to ICR mice and blood collection at 3, 10, 30, 60, 120 and 240 min (i.v. dosing) or 10, 30, 60, 120, 240 and 360 min (p.o. dosing). Each animal was subjected to a single blood draw and 3 animals per time point were used. Parameters were obtained from non-compartmental analysis of the plasma data using WinNonlin. Experimental details are provided in Supplementary Methods. […]
In v ivo pharmaco kinetics
ICR mice that have been fasted overnight were administered 125 mg/kg ERG240 i.v. or 500 mg/kg ERG240 p.o. At predetermined time points, mice were sedated under general inhalant anaesthesia (3 % isoflurane) and 300- 400 µL of blood were collected in tubes coated with lithium heparin by cardiac puncture . The plasma was harvested after cent rifugation and kept frozen at - 20 °C until further processing. Proteins present in the plasma were precipitated b y acetonitrile. Specificall y, 50 µL of plasm a samples were trans ferred to a 9 6-well plate and 10 µL of a acetonitrile/water 50/50 (v/v) solution was added to each well. At this point, 150 μ L of 1 ng/μ L of aspirin in acetonitrile were also added as internal standard. After sample mixing and centrifugation, 100 µL supernatant were withdrawn from each well and mixed with […] w ater for HP LC -MS/MS analysis. Sample anal ysis b y HPLC -MS/MS employed a Agilent Poroshell 120 EC-C18 column 2.7μm (3.0 x 50mm) and a gradient elution with two mobile phases (A: acetonitrile/water/formic acid 99/1/0.02 (v/v/v);
B:acetonitrile/water/formic acid 1/99/0.02 (v/v/v)). A volume of […] of sample were injected into the column and the sample concentration was determined by employing calibration curves that were generated prior to sample anal ysis b y spiking drug- free plasma with specified concentrations of ERG240. The quantitation range was 5- 10000 ng/mL.
Following sample analysis, plots of plasma concentration of ERG240 vs. time were constructed. Fundamental pharmacokinetic parameters were calculated from the non-compartmental analysis of the plasma data using WinNonlin. […]
Pannus: 0=Normal; 1=Minimal infiltration of pannus in cartilage and subchondral bone; 2=Mild infiltration of pannus in cartilage with marginal zone destruction of hard tissue in affected joints; 3=Moderate infiltration of pannus in cartilage with moderate hard tissue destruction in affected joints; 4=Marked infiltration of pannus in cartilage with marked destruction of joint architecture, most joints; 5=Severe infiltration associated with total or near total destruction of joint architecture, all joints. Cartilage Damage: 0=Normal;

For data set [3], the system named is human monocyte-derived macrophages (hMDMs). Nature of the data set: Seahorse extracellular flux analysis (OCR, ECAR) in hMDMs. The format is cell-based. The conditions noted are these: LPS 100 ng ml^−1 + ERG240 20 mM, 3 h. On the procedure:
Figure 2 BCAT1 inhibition reduces oxygen consumption and glycolysis in human macrophages. (a) Real-time extracellular OCR measurements in hMDMs (left panel) that were previously treated with either LPS (100 ng ml^−1) or LPS+ERG240 (20 mM) for 3 h. OCR values were recorded following sequential treatments with glucose (5 mM), oligomycin A (0.5 μM), carbonyl cyanide 4-(trifluoromethoxy) phenyl- hydrazine (FCCP, 1 μM) and a combination of 2-deoxy-D-glucose (2-DG, 50 mM), antimycin A (1 μM) and rotenone (1 μM). Basal respiration, estimated ATP production, and maximal respiration are shown in the right panel. n=3 healthy donor hMDMs were used in 12 technical replicates. The results are representative of three independent experiments. (b) Real-time ECAR (left panel), glycolysis and glycolytic capacity (right panel). n=3 healthy donor hMDMs were used in 12 technical replicates. The results are representative of three independent experiments. (c) hMDMs were subjected to BCAT1 siRNA (si-BCAT1) or non-targeting siRNA (Si-Control) treatment, followed by LPS stimulation (3 h, 100 ng ml^−1) before measuring BCAT1 expression levels (left panel), OCR (middle panel) and ECAR (right panel). (d) Basal respiration, estimated ATP production, maximal respiration, glycolysis and glycolytic capacity in si-Control and si-BCAT1 transfected, LPS-treated hMDMs. n=4 hMDMs were used in at least five technical replicates. Error bars are s.e.m. Significance was tested using two-tailed Student’s t-test.
Real-time measurements of OCR and ECAR were performed using a Seahorse XF96 Extracellular Flux Analyzer (Seahorse Bioscience). hMDMs cultured for 5 days in presence of RPMI containing M-CSF (100 ng ml^−1) and FCS (10%) were washed and incubated with either ERG240 or LPS or a combination of both for 3 h. Cells were then washed, re-suspended using the non-enzymatic cell dissociation buffer (Sigma) and 5 × 10^5 hMDMs were seeded as a monolayer in a 96-well microplate containing XF Assay Modified DMEM. Glucose and different metabolic drugs were injected during real-time measurements of OCR and ECAR. Basal respiration was calculated as the last measurement before addition of oligomycin – non mitochondrial respiration (minimum rate measurement after Rot/AntA). Estimated ATP production designates the last measurement before addition of oligomycin – minimum rate after oligomycin. Maximal respiration is shown as the maximum rate measurement after addition of FCCP – non mitochondrial respiration (minimum rate measurement after Rot/AntA). Glycolysis refers to ECAR values before the addition of oligomycin – ECAR values before the addition of glucose. […] In RNAi experiments, hMDMs transfected with either BCAT1 siRNA or control (non-targeting) siRNA were seeded in a 96-well microplate, LPS-stimulated (100 ng ml^−1, 3 h) and real-time measurements of OCR and ECAR were recorded, as described above.

[4] abbreviates: LPS 100 ng/ml + ERG240 20 mM, 3 h, qRT-PCR.

As for `CC(=O)C(C)CCC(=O)O` (stereo not drawn) [ERG240], the “adverse effects in dose-escalating toxicity study” value in data set [1] was “no major adverse effects”. In data set [2] (setting [4]), the NOS2 expression levels entry is reported as “significantly reduced” and the TNF expression levels result is “significantly reduced”. The “IL-1β levels, long-term exposure” value in data set [2] (LPS + ERG240 20 mM, 24 h, Western blot) is listed as “reduced IL-1β levels”. Besides, the “IRG1 expression in TNF-stimulated human macrophages” value in data set [2] (TNF 2 ng/ml, ERG240 20 mM, 8 h) is given as “comparable inhibitory effect”. Moreover, in “In vivo pharmacokinetics” (IV 125 mg kg^−1, mice), the AUC(0-inf) came to 149 µg·h/mL, the AUC(0-t) is 149 µg·h/mL, the C0 was found to be 231 µg/mL and the MRT is 33 min. For the same compound, in the data set “In vivo pharmacokinetics” (IV 125 mg kg^−1, mice), the clearance was determined as 45.6 mL/min/kg and the half-life was 7.2 min. In the data set “In vivo pharmacokinetics” (oral 500 mg kg^−1, mice), this compound yielded an AUC(0-inf) of 794 µg·h/mL, an AUC(0-t) of 794 µg·h/mL, a Cmax of 351 µg/mL and an MRT of 74.4 min. Moreover, the Tmax in the data set “In vivo pharmacokinetics” (oral 500 mg kg^−1, mice) was 60 min. Also, the bioavailability in the data set “In vivo pharmacokinetics” (oral 500 mg kg^−1, mice, read-out: F (bioavailability)) stood at 100%. In addition, in data set [3], the basal respiration entry is given as “significantly reduced”, the “estimated ATP production” value is recorded as “significantly reduced”, the “extracellular acidification rate (ECAR)” value is “decreased” and the glycolysis result is “significantly reduced”. Besides, in data set [3], the glycolytic capacity entry was “significantly reduced”, the maximal respiration result is “significantly reduced” and the “oxygen consumption rate (OCR)” value is listed as “decreased”.

One may read the AUC(0-inf) as total exposure, with the tail of the curve extrapolated. Lower therefore signals low exposure. The AUC(0-t) is exposure summed from dosing to a finite time, without extrapolation to infinity. For orientation: MRT means the average time that molecules of a dose stay in the body. For orientation: clearance means a measure of how efficiently the substance is removed, as volume per time. Low values mean a low capacity for elimination, high ones a high capacity for elimination. A word on the half-life: it is how long it takes for the measured level to halve. A word on the Cmax: it is the highest concentration seen after dosing. What is called Tmax is the time at which the peak concentration occurs. The bioavailability is the share of a dose that reaches the circulation, judged against a reference dose that is usually intravenous.
